Results from patent publication US6451808B1 (DepoMed, Inc., priority 2000, dated 2002).

Tested on: adult beagle dogs
Experiment: Metformin-induced retrograde giant contractions (RGCs) and vomiting in beagle dogs, with or without intravenous ondansetron
Format: in vivo, dog
Procedure: Contractions of the smooth muscle of the gastrointestinal tracts of the dogs were monitored with strain gauge force transducers to permit detection of retrograde giant contractions (RGCs). The times at which either RGCs or vomiting occurred were recorded. Vomiting is always preceded by RGCs, while RGCs may also occur without vomiting and are generally thought to be an indication of nausea.

Question: What does the source list for `Cc1nccn1CC1CCc2c(c3ccccc3n2C)C1=O` (stereo not shown) [Ondansetron, 1,2,3 ,9-Tetrahydro-9-methyl-3-[(2-methyl1-H-imidazole-1-yl)methyl]-4H-carbazol-4-one]?
Answer: Time at which one RGC and vomit occurred after metformin administration (Dog A, Test 2, ondansetron 0.15 mg/kg i.v. 15 min before metformin 25 mg/kg): 179 minutes after metformin; Observations (RGCs, vomiting) (Dog A, Test 3, ondansetron 0.15 mg/kg i.v. 15 min before metformin 25 mg/kg): no RGCs or vomiting occurred; Observations (RGCs, vomiting) (Dog B, Tests 3 and 4, ondansetron 0.15 mg/kg i.v. 15 min before metformin 50 mg/kg): no RGCs or vomiting occurred; Suppression of the emetic effects of a metformin dosage (overall conclusion from the dog tests): effective in suppressing the emetic effects
